Counter-ions that a name gives are not always drawn. Blank lines part the entries; values can stand above or below the compound they belong to.
Columns and labels:
[1] = system: Shay's rat; test: Anti-ulcerative activity, pylorus ligation (Shay's rat); type: in vivo; details: perorally, 16 hours after ligation; for inhibition in vivo at 100 mg/kg / inhibition in vivo at 500 mg/kg: Rattus norvegicus, po, 16 h, read-out: % inhibition (ulcer index)
Description: In order to ascertain the anti-ulcerative activity […], Shay's rat (Gastro enterology 26, P. 906) is selected. Rats are fasted for 48 hours and pylorus ligation is carried out under light anesthesia. Drug is given perorally. 16 hours after ligation the animals are sacrificed and the stomach is removed. The induced erosion is measured in area and scored as ulcer index (U.I.). The data are expressed as % inhibition to the control value from the equation described below.

[2] = target: T1, pepsin (Sus scrofa, UniProt P00791); test: Anti-peptic activity in vitro (bovine serum albumin as substrate); type: biochemical; details: for IC50: obtained graphically, read-out: ID50 (50% inhibiting dose) (converted); for inhibition at 125 µg/mL: sample concentration 0.125 mg/ml; for inhibition at 250 µg/mL: sample concentration 0.250 mg/ml; for inhibition at 500 µg/mL: sample concentration 0.500 mg/ml; for inhibition at 1000 µg/mL: sample concentration 1.000 mg/ml
T1 construct: purchased
Description: Anti-peptic activity of the compounds is tested in vitro according to V. K. Thiemer (Arznei-Forsch 22 (6), PP. 1086, 1972), using bovine serum albumin as a substrate and commercially available pepsin.
Also ID50 (50% inhibiting dose) is obtained graphically.

[3] = Stability on storage (% residue of the original compound); type: physicochemical; details: for remaining at 96 h: 40° C.; for remaining at 192 h: 60° C.; for remaining at 240 h: 70° C.; for remaining at 288 h: 80° C.
From the text: The data are expressed in % residue of the original compounds after the storage in each condition.

[4] = Acute toxicity (Litchfield & Wilcoxon method); details: rat, in vivo
Description: The acute toxicity of Compound 3 is determined by Litchfield & Wilcoxon method using SD rats.

T1 sequence (P00791 60-385): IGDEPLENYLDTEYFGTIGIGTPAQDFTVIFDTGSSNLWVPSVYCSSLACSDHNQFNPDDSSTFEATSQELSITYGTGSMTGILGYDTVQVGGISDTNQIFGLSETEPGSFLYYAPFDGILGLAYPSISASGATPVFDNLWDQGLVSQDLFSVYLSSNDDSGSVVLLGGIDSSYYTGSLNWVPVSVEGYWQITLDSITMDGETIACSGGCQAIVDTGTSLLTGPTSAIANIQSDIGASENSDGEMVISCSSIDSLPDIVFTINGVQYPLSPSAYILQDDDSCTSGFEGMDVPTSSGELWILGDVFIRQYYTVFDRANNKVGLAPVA

Structure (SMILES): CCCc1cc(S(=O)(=O)O)c2ccccc(OC)c1-2 [compound 26, Sodium 4-methoxy-3-propyl-azulene sulfonate]
inhibition in vivo at 100 mg/kg ([1]; 100 mg/kg): 75.6%

Structure (SMILES): CCCCCCc1cc(S(=O)(=O)O)c2ccccc(OC)c1-2 [compound 29, Sodium 4-methoxy-3-hexyl-azulene sulfonate]
inhibition in vivo at 100 mg/kg ([1]; 100 mg/kg): 38%

Structure (SMILES): CCc1cc(S(=O)(=O)O)c2cccccc1-2 [compound 2, Sodium 3-ethyl-azulene sulfonate]
inhibition in vivo at 500 mg/kg [1]: 100%

Structure (SMILES): CCc1cc(S(=O)(=O)O)c2cccccc1-2 [compound 36, 3-ethyl-azulene sulfonic acid aluminum salt]
inhibition in vivo at 100 mg/kg ([1]; 100 mg/kg): 28.6%

Structure (SMILES): Cc1cc(S(=O)(=O)O)c2cccccc1-2 [compound 35, 3-methyl-azulene sulfonic acid aluminum salt]
inhibition in vivo at 100 mg/kg ([1]; 100 mg/kg): 16.5%

Structure (SMILES): CCCCc1cc(S(=O)(=O)O)c2cccccc1-2 [compound 14, Sodium 3-n-butyl-azulene sulfonate]
inhibition in vivo at 100 mg/kg ([1]; 100 mg/kg): 32.7%

Structure (SMILES): CC(C)c1cccc2c(Cc3ccccc3)cc(S(=O)(=O)O)c-2c1 [compound 23, Sodium 7-isopropyl-3-benzyl-azulene sulfonate]
inhibition in vivo at 100 mg/kg ([1]; 100 mg/kg): 9.8%

Structure (SMILES): CCCc1cc(S(=O)(=O)O)c2cc(C(C)C)ccc(OC)c1-2 [compound 32, Sodium 7-isopropyl-4-methoxy-3-propyl-azulene sulfonate]
inhibition in vivo at 100 mg/kg ([1]; 100 mg/kg): 44.1%

Structure (SMILES): Cc1cc(S(=O)(=O)O)c2cccccc1-2 [compound 1, Sodium 3-methyl-azulene sulfonate]
inhibition in vivo at 500 mg/kg [1]: 52.4%

Structure (SMILES): CCCCCc1cc(S(=O)(=O)O)c2cccccc1-2 [compound 15, Sodium 3-n-pentyl-azulene sulfonate]
inhibition in vivo at 100 mg/kg ([1]; 100 mg/kg): 64.3%

Structure (SMILES): CCc1cc(S(=O)(=O)O)c2cc(C(C)C)cccc1-2 [compound 38, 7-isopropyl-3-ethyl-azulene sulfonic acid aluminum salt]
inhibition in vivo at 100 mg/kg ([1]; 100 mg/kg): 40.3%

IC50 [2]: 3790 µM
inhibition at 125 µg/mL [2]: 0.26%
inhibition at 250 µg/mL [2]: 3.57%
inhibition at 500 µg/mL [2]: 24.5%
inhibition at 1000 µg/mL [2]: 50.4%
Structure (SMILES): CC(C)=CCCC(C)c1cc(S(=O)(=O)O)c2cccccc1-2 (centres unmarked) [compound 5, Sodium 3-(1'-R, S-1',5'-dimethyl-4'-hexene) azulene sulfonate]
inhibition in vivo at 500 mg/kg [1]: 95.5%

Structure (SMILES): CCCCc1cc(S(=O)(=O)O)c2cc(C(C)C)ccc(OC)c1-2 [compound 33, Sodium 7-isopropyl-4-methoxy-3-butyl-azulene sulfonate]
inhibition in vivo at 100 mg/kg ([1]; 100 mg/kg): 64.8%

Structure (SMILES): CCCCCc1cc(S(=O)(=O)O)c2cc(C(C)C)cccc1-2 [compound 19, Sodium 7-isopropyl-3-n-pentyl-azulene sulfonate]
inhibition in vivo at 100 mg/kg ([1]; 100 mg/kg): -56.3%

Structure (SMILES): CCCCCc1cc(S(=O)(=O)O)c2cc(C(C)C)ccc(OC)c1-2 [compound 34, Sodium 7-isopropyl-4-methoxy-3-pentyl-azulene sulfonate]
inhibition in vivo at 100 mg/kg ([1]; 100 mg/kg): -14.6%

Structure (SMILES): CCCc1cc(S(=O)(=O)O)c2cc(C(C)C)cccc1-2 [compound 17, Sodium 7-isopropyl-3-n-propyl-azulene sulfonate]
inhibition in vivo at 100 mg/kg ([1]; 100 mg/kg): 31.2%

IC50 [2]: 1830 µM
inhibition at 125 µg/mL [2]: 17.3%
inhibition at 250 µg/mL [2]: 28.9%
inhibition at 500 µg/mL [2]: 65.7%
inhibition at 1000 µg/mL [2]: 55.8%
Structure (SMILES): CCc1cc(S(=O)(=O)O)c2ccc(C(C)C)ccc1-2 [compound 4, Sodium 3-ethyl-6-isopropyl-azulene sulfonate]
inhibition in vivo at 500 mg/kg [1]: 100%

Structure (SMILES): CCc1cc(S(=O)(=O)O)c2ccccc(OC)c1-2 [compound 25, Sodium 4-methoxy-3-ethyl-azulene sulfonate]
inhibition in vivo at 100 mg/kg ([1]; 100 mg/kg): 75.6%

Structure (SMILES): COc1ccccc2c(S(=O)(=O)O)cc(C)c1-2 [compound 24, Sodium 4-methoxy-3-methyl-azulene sulfonate]
inhibition in vivo at 100 mg/kg ([1]; 100 mg/kg): 63.4%

Structure (SMILES): CCCCCc1cc(S(=O)(=O)O)c2ccccc(OC)c1-2 [compound 28, Sodium 4-methoxy-3-pentyl-azulene sulfonate]
inhibition in vivo at 100 mg/kg ([1]; 100 mg/kg): 42%

Structure (SMILES): COc1ccc(C(C)C)cc2c(S(=O)(=O)O)cc(C)c1-2 [compound 30, Sodium 7-isopropyl-4-methoxy-3-methyl-azulene sulfonate]
inhibition in vivo at 100 mg/kg ([1]; 100 mg/kg): 58.7%

remaining at 96 h [3]: 100%
remaining at 192 h [3]: 51.3%
remaining at 240 h [3]: 9.3%
remaining at 288 h [3]: 1.5%
IC50 [2]: 1290 µM
inhibition at 125 µg/mL [2]: 14.6%
inhibition at 250 µg/mL [2]: 50.4%
inhibition at 500 µg/mL [2]: 58.6%
inhibition at 1000 µg/mL [2]: 75.1%
Structure (SMILES): Cc1cc(S(=O)(=O)O)c2c(C)ccc(C(C)C)cc1-2 [GAS, sodium guaiazulene-3-sulfonate, reference compound]

Structure (SMILES): Cc1cc(S(=O)(=O)O)c2cc(C(C)C)cccc1-2 [compound 13, Sodium 3-methyl-7-isopropyl-azulene sulfonate]
% inhibition (ulcer index) ([1]; 100 mg/kg): 69.7%

Structure (SMILES): CC(C)=CCC[C@H](C)c1cc(S(=O)(=O)O)c2cccccc1-2 [compound 8, Sodium 3-(1'-S-1',5'-dimethyl-4'-hexene)-azulene sulfonate]
inhibition in vivo at 500 mg/kg [1]: 69.9%

Structure (SMILES): CC(C)=CCC[C@@H](C)c1cc(S(=O)(=O)O)c2cc(C(C)C)cccc1-2 [compound 21, Sodium 7-isopropyl-3-(1'-R-1',5'-dimethyl-4'-hexene)-azulene sulfonate]
inhibition in vivo at 100 mg/kg ([1]; 100 mg/kg): 14.5%

Structure (SMILES): CCCc1cc(S(=O)(=O)O)c2cccccc1-2 [compound 12, Sodium 3-propyl-azulene sulfonate]
inhibition in vivo at 100 mg/kg ([1]; 100 mg/kg): 78.5%

Structure (SMILES): CC(C)=CCC[C@H](C)c1cc(S(=O)(=O)O)c2cc(C(C)C)cccc1-2 [compound 22, Sodium 7-isopropyl-3-(1'-S-1',5'-dimethyl-4'-hexene)-azulene sulfonate]
inhibition in vivo at 100 mg/kg ([1]; 100 mg/kg): -19.5%

Structure (SMILES): CC(C)c1cccc2c(S(=O)(=O)O)ccc-2c1 [compound 16, Sodium 5-isopropyl-azulene sulfonate]
inhibition in vivo at 100 mg/kg ([1]; 100 mg/kg): 62%

Structure (SMILES): CCc1cc(S(=O)(=O)O)c2cc(C(C)C)ccc(OC)c1-2 [compound 31, Sodium 7-isopropyl-4-methoxy-3-ethyl-azulene sulfonate]
inhibition in vivo at 100 mg/kg ([1]; 100 mg/kg): 67.6%

Structure (SMILES): Cc1cc(S(=O)(=O)O)c2cc(C(C)C)cccc1-2 [compound 37, 7-isopropyl-3-methyl-azulene sulfonic acid aluminum salt]
inhibition in vivo at 100 mg/kg ([1]; 100 mg/kg): 58.4%

Structure (SMILES): CC(C)=CCCC(C)c1cc(S(=O)(=O)O)c2cc(C(C)C)cccc1-2 (centres unmarked) [compound 20, Sodium 7-isopropyl-3-(1'-R, S-1',5'-dimethyl-4'-hexene)-azulene sulfonate]
inhibition in vivo at 100 mg/kg ([1]; 100 mg/kg): 43.8%

Structure (SMILES): CCCCc1cc(S(=O)(=O)O)c2cc(C(C)C)cccc1-2 [compound 18, Sodium 7-isopropyl-3-n-butyl-azulene sulfonate]
inhibition in vivo at 100 mg/kg ([1]; 100 mg/kg): 17.2%

Structure (SMILES): CCCCc1cc(S(=O)(=O)O)c2ccccc(OC)c1-2 [compound 27, Sodium 4-methoxy-3-butyl-azulene sulfonate]
inhibition in vivo at 100 mg/kg ([1]; 100 mg/kg): 66.3%

Structure (SMILES): CCc1cc(S(=O)(=O)O)c2cc(C(C)C)cccc1-2 [compound 3, Sodium 3-ethyl-7-isopropyl-azulene sulfonate]
LD50 ([4]; ip, I.P., female, 95% confidence limits): 180 mg/kg
LD50 ([4]; ip, I.P., male, 95% confidence limits): 165 mg/kg
LD50 ([4]; iv, I.V., female, 95% confidence limits): 153 mg/kg
LD50 ([4]; iv, I.V., male): 130 mg/kg
LD50 ([4]; po, P.O., female, 95% confidence limits): 1200 mg/kg
LD50 ([4]; po, P.O., male, 95% confidence limits): 1000 mg/kg
inhibition in vivo at 500 mg/kg [1]: 100%
remaining at 96 h [3]: 100%
remaining at 192 h [3]: 100%
remaining at 240 h [3]: 100%
remaining at 288 h [3]: 100%
stability, in words ([3]; compared with sodium guaiazulene sulfonate): greatly improved
IC50 [2]: 1070 µM
inhibition at 125 µg/mL [2]: 17.3%
inhibition at 250 µg/mL [2]: 47.6%
inhibition at 500 µg/mL [2]: 63.6%
inhibition at 1000 µg/mL [2]: 97.1%
